The results in this text go back to patent publication US20180282260A1, “1-AMINOCYCLOPROPANE-1-CARBOXYLIC ACID POLYMORPHS” (Valent BioSciences LLC, priority 2017, published 2018).

One data set has as its system cotton cotyledons. The experiment in a line: Cotton cotyledon bioefficacy assay (ethylene production by gas chromatography). The format is in vivo. Conditions: for Ethylene production in cotton cotyledons, average: Average of trials, 500 ppm ACC, 48 hours after application; for Ethylene production in cotton cotyledons: 500 ppm ACC sprayed on 10-day old cotyledons, removed 48 hours after application, incubated 4 to 7 hours. The procedure: The ACC anhydrate from Chem-Impex International, Inc., an ACC anhydrate prepared by Inogent Laboratories of India and the ACC trihydrate of the present invention were each dissolved with water to 500 ppm w!w of ACC and applied separately to individual sets of 10-day old cotton cotyledons by a hand sprayer in 4 separate trials. 48 hours after application the cotyledons were removed and incubated in sealed vials for 4 to 7 hours. Following incubation, the cotyledons were measured for ethylene gas production by gas chromatography.

Data set [1] in a line: Crystal form stability under high humidity. Format: physicochemical.

Turning to `NC1(C(=O)O)CC1` [Chem-Impex Anhydrate, 1-aminocyclopropane-1-carboxylic acid anhydrate], the “Ethylene production in cotton cotyledons, average” value (“Ethylene production … average” below) in the data set with cotton cotyledons came out at 25.66 nL C2H4/g/hr. For the same molecule, the “Ethylene production in cotton cotyledons” value was 28.14 nL C2H4/g/hr in the data set with cotton cotyledons (Trial 1) and 23.18 nL C2H4/g/hr with cotton cotyledons (Trial 2).
For the molecule `NC1(C(=O)O)CC1` [Inogent Anhydrate], the “Ethylene production … average” value in the data set with cotton cotyledons is given as 20.07 nL C2H4/g/hr. For the same molecule, the “Ethylene production in cotton cotyledons” value is recorded as 25.00 nL C2H4/g/hr in the data set on cotton cotyledons (Trial 1), 20.33 nL C2H4/g/hr with cotton cotyledons (Trial 2), 17.53 nL C2H4/g/hr in the data set on cotton cotyledons (Trial 3) and 17.43 nL C2H4/g/hr in the data set on cotton cotyledons (Trial 4).
In the case of `NC1(C(=O)O)CC1` [Trihydrate, 1-aminocyclopropane-1-carboxylic acid trihydrate], in data set [1], the “Stability of crystal form” value is “most stable crystal form of ACC under high humidity”. Further, the “Ethylene production … average” value in the data set on cotton cotyledons (trihydrate) came to 22.71 nL C2H4/g/hr. Moreover, the “Ethylene production in cotton cotyledons” value in the data set with cotton cotyledons (Trial 1, trihydrate) is on record as 15.06 nL C2H4/g/hr; in the data set with cotton cotyledons (Trial 2, trihydrate), 22.04 nL C2H4/g/hr; with cotton cotyledons (Trial 3, trihydrate), 36.30 nL C2H4/g/hr; in the data set on cotton cotyledons (Trial 4, trihydrate), 17.46 nL C2H4/g/hr.
